In patent publication US20060199853A1, “Analogs of 4-hydroxyisoleucine and uses thereof” (priority 2005, published 2006):

Key:
[1] = test system: Diet Induced Obesity (DIO)-C57BL/6 Mice; assay: Glycemic response to an OGTT during chronic oral administration in DIO-C57BL/6 mice; assay type: in vivo; conditions: for time of maximal effect on control of glycemia: chronic oral administration twice daily
Procedure: Studies were conducted to evaluate the effect of a chronic oral administration of selected analogs according to the invention on the glycemic response of Diet-induced Obesity (DIO)-C57BI/6 mice following an Oral Glucose Tolerance Test (OGTT) performed weekly.
In a first study, a total of 56 animals were used. The animals were distributed into 7 groups (6 treated and 1 high fat diet control groups). Each group was composed of 8 animals. The mice were randomized according to basal glycemia values following a 5±0.5 hours fasting period. Compound #14a and #133 were dissolved in reverse osmosis water while Compound #13e was dissolved in 200 mM Bicarbonate/0.1% Tween-20 buffer, pH=9.0. Compounds #14a and #133 were kept at 4° C (administration to groups 2 & 3, and 4 & 5, respectively) while Compound #13e was freshly prepared daily. Control animals received sterile saline, twice daily (Groups 1 […]). Mice from groups 2 and 3 were treated twice daily with Compound #14a at 50 and 100 mg/kg, respectively. Animals from groups 4 and 5 received twice daily 50 and 100 mg/kg of Compound #133, respectively. Mice from groups 6 and 7 received 25 and 50 mg/kg of Compound #13e, twice daily, respectively.
On day 0, 7, 14, and 21, animals fasted for about 5 hours were challenged with an Oral Glucose Tolerance Test (OGTT) at 5 hours post-AM test article administration. Whole blood glucose levels were monitored using a hand-held glucometer prior to OGTT and for up to 2 hours post-glucose challenge. In a separate experiment, the same experimental design was used to evaluate the effect of chronic administration of Compound #85(101a) on the glycemic response of DIO-C57BI/6 mice following an Oral Glucose Tolerance Test (OGTT) performed after 7 days of treatment.
FIGS. 19A, 19B, 19C, and 19D are bar graphs showing glycemic response of mice following an OGTT performed after 7 days (FIGS. 19A and 19D), 14 days (FIG. 19B) or 21 days (FIG. 19C) of treatment after chronic oral administration of selected analogs according to the invention. For each figure, delta glycemia values were calculated by substraction of pre-OGTT glycemia value. AUC values were obtained from the delta glycemia curves. Values represent the mean±SEM. N=8 animals/group. Ctl=Control DIO.*p<0.05.

[2] = test system: differentiated 3T3-L1 adipocyte cells; assay: Stimulation of glucose uptake (3H-deoxy-glucose) by differentiated 3T3-L1 adipocyte cells; assay type: cell-based; conditions: insulin at 10^-7 M; for stimulation of glucose uptake beyond that caused by insulin alone: FIG. 15B, 0.5 mM; for stimulation of glucose uptake: FIG. 15A, compounds at three concentrations, last 30 min of starvation
Procedure: Selected analogs according to the invention were tested for their effect on the uptake of ^3H-deoxy-glucose by differentiated 3T3-L1 adipocyte cells. Briefly, 3T3-L1 adipocyte cells (ATCC; Cl-173) were cultured in 12 well tissue culture plates for 3 days in order to reach confluence (Lakshmanan et al., Diabetes Mellitus: Methods and Protocols, Saire Ozcna, Ed., Humana Press Inc., Tonowa, N.J. 97-103, 2003). The culture medium was removed and replaced with differentiation medium (Green and Meuth, Cell 3:127-133, 1974; Madsen et al., Biochem. J. 375:539-549, 2003) and then the cells were incubated for an additional 9 days. The state of differentiation was confirmed by visual examination. Cell starvation was conducted for 5 hours by replacing the differentiation medium with one lacking fetal calf serum. During the last 30 minutes of the starvation period, the cells were exposed to compounds to be assayed at a range of concentrations. As a positive control, cells were exposed to insulin (0.0167 U/mL; Sigma; Cat. No. 15534) for the last 30 minutes of the starvation period Cells were exposed to 0.5 mM isoleucine are used as a control for background uptake. All treatments were performed in triplicate. Cells were washed, then fresh medium containing 16 μM ^3H-Deoxy-D-glucose (0.5 μCi/mL) and 10 μM 2-Deoxy-D-glucose was added and the cells were incubated for 10 min. Glucose uptake was stopped by washing the cells with ice cold PBS. The cells were lysed and specific activity in the lysate was determined relative to background uptake of ^3H-deoxy-glucose. Results were standardized on the basis of protein content per well.
FIG. 1 5B is another figure showing insulin stimulation of glucose uptake by insulin at 10^−7M, and by the analogs of the invention.

[3] = test system: Diet Induced Obesity (DIO)-C57BL/6 Mice; assay: Glycemic response to an OGTT after a single oral administration in DIO-C57BL/6 mice; assay type: in vivo; conditions: FIGS. 18A, 18B; for glycemic response following OGTT (delta glycemia AUC): 100 mg/kg, OGTT 10 minutes post-administration; for efficacy relative to the other compounds tested: OGTT
Procedure: Studies were conducted to evaluate the effect of acute oral administration of selected analogs according to the invention on the glycemic response of Diet-Induced Obesity (DIO)-C57BI/6 mice following an Oral Glucose Tolerance Test (OGTT).
In the first study, a total of 40 mice were used. The animals were randomized according to their basal glycemia values following a 5±0.5 hours fasting period and then distributed into 5 groups (1 control and 4 treated groups). Each group was composed of 8 animals. On the day of treatment, test articles were dissolved in reverse osmosis water and kept on ice. Control group (Group 1) received sterile water and Group 2 to 5 received 100 mg/kg of Compound #14a, Compound #128, Compound #133 and Compound #13e, respectively.
On the day of experimentation, animals were fasted ˜5 hours prior to the OGTT and then OGTT was performed at 10 minutes post-test article administration, by oral gavage administration of 40% glucose solution. Whole blood glucose levels were monitored using a hand-held glucometer prior to OGTT and for up to 2 hours post-lucose challenge.
In a separate experiment, the effect of acute oral administration of another analog, Compound #85(101a), on the glycemic response of DIO-mice was evaluated using the same experimental design.
FIGS. 18A and 18B show the glycemic response of mice following an OGTT performed after a single oral administration of Compounds #14a, #128, #133, #13e, and #85(101a). For both figures, delta glycemia values were calculated by substraction of pre-OGTT glycemia value. AUC values were obtained from the delta glycemia curves. Values represent the mean±SEM. N=8 animals/group. Ctl=Control DIO.*p<0.05; . . . p<0.001.

INS-1 cells = assay: Glucose-dependent stimulation of insulin secretion in INS-1 cells; assay type: cell-based; conditions: for insulin stimulating activity: 0.5 mM compound, 4.5 mM glucose; for stimulation of insulin secretion: FIGS. 17A-17E, single concentration of 0.5 mM, 4.5 or 5 mM glucose
Procedure: Selected analogs according to the invention were tested in a blinded fashion for insulinotropic effect on INS-1 cells. Briefly, the cells were plated at a density of 2×10^5 in 12 well plates and incubated for 2 days in RPMI with 10% fetal calf serum and 11 mM glucose. The medium was removed on the third day post-plating and replaced with RPMI containing 3 mM glucose with 10% fetal calf serum. The cells were incubated for an additional 24 hours. On the fourth day post-plating, the medium was removed and replaced with Krebs-Ringer bicarbonate buffer containing 2 mM glucose. The cells were incubated for 30 min and the buffer was removed and replaced with Krebs-Ringer bicarbonate buffer with 4.5 mM glucose containing the compounds to be tested at a concentration of 0.5 mM. The cells were incubated for 1 hour. Basal insulin secretion was determined by incubating the cells in the presence of buffer with 2 mM glucose. The presence of glucose at 4.5 and 10 mM stimulated insulin secretion served as the reference control and positive control, respectively.
Selected analogs according to the invention were screened for insulinotropic effect on INS-1 pancreatic beta cells according to the method described in Example 3.

| Compound | glycemic response following OGTT (delta glycemia AUC) [3] | stimulation of insulin secretion (INS-1 cells) | stimulation of glucose uptake [2] | further results |
| --- | --- | --- | --- | --- |
| N[C@H](C(=O)O)[C@@H]1CCCC[C@H]1O [#13e] | significant effect on the glycemic control of DIO-mice | more effective to stimulate insulin secretion than parent compound #14a |  | glycemia increase following OGTT ([1]; 25 and 50 mg/kg twice daily, half the dose of the other treated groups): significantly reduced the glycemia increase in DIO-mice; hyperglycaemic response following OGTT ([1]; 25 and 50 mg/kg twice daily, Day 21, FIG. 19C): reduced significantly the hyperglycaemic response of animals; time of maximal effect on control of glycemia [1]: 14 days post-initiation of treatment; stimulation of glucose uptake beyond that caused by insulin alone [2]: greater than the stimulation caused by the parent compound; efficacy relative to the other compounds tested [3]: most efficacious; insulin stimulating activity (INS-1 cells; FIG. 16A, 1 hour): most effective; insulin stimulating activity (INS-1 cells; FIG. 16B): most effective |
| C[C@@H]([C@H](C)O)[C@H](N)C(=O)O [#14a] | significant effect on the glycemic control of DIO-mice | significant insulin stimulating activity in all the experiments | stimulated glucose uptake at all three concentrations tested | time of maximal effect on control of glycemia [1]: 14 days post-initiation of treatment; stimulation of glucose uptake beyond that caused by insulin alone [2]: limited stimulation of glucose uptake beyond that caused by insulin alone; insulin stimulating activity (INS-1 cells; FIG. 16A, 1 hour): significant insulin stimulating activity |
| N[C@H](C(=O)O)[C@H]1CCCC[C@H]1O [#15e] |  | more effective to stimulate insulin secretion than parent compound #14a |  |  |
| CC1C(O)CN[C@@H]1C(=O)O (some centres unmarked) [#22] |  | more effective to stimulate insulin secretion than parent compound #14a |  |  |
| CC(O)C1C(O)CN[C@@H]1C(=O)O (some centres unmarked) [#33] |  |  | at least equivalent activity to the parent compound |  |
| NC(CC(O)C1CCCCC1)C(=O)O (centres unmarked) [#59] |  | more effective to stimulate insulin secretion than parent compound #14a |  |  |
| NC(CC(O)c1ccccc1)C(=O)O (centres unmarked) [#61] |  | more effective to stimulate insulin secretion than parent compound #14a |  |  |
| C[C@H]([C@H](N)C(=O)O)C(C)(C)O [#85(101a)] | significant effect on the glycemic control of DIO-mice |  |  | glycemic control following OGTT ([1]; 7 consecutive days of administration, statistically significant vs control, FIG. 19D): improved the glycemic control of DIO-mice; efficacy relative to the other compounds tested [3]: most efficacious |
| C=CC(C)(C)C(N)C(=O)O (centres unmarked) [#102b] |  |  | at least equivalent activity to the parent compound |  |
| CC(=O)N[C@@H]1C(=O)O[C@@H](C)[C@@H]1C [#104] |  | more effective to stimulate insulin secretion than parent compound #14a |  |  |
| CC(C)[C@H](NC[C@@H](C)O)C(=O)O [#133] | significant effect on the glycemic control of DIO-mice |  |  | time of maximal effect on control of glycemia [1]: 14 days post-initiation of treatment |
| O=C(O)[C@H]1C[C@@H](O)CN1 [#201] |  | more effective to stimulate insulin secretion than parent compound #14a |  |  |
| insulin [reference compound] |  |  | strongly promoted glucose uptake |  |
